Data on nine compounds can be found in patent US20160378912A1, “STRUCTURE-BASED MODELING AND TARGET-SELECTIVITY PREDICTION” (EPIGENETX, LLC, priority 2013, published 2016).

Where two headings read alike, the source gives them in different places.

For assay [1], the target named is T1, HDAC8 (Homo sapiens, UniProt Q9BY41).
T1 sequence (Q9BY41 1-377): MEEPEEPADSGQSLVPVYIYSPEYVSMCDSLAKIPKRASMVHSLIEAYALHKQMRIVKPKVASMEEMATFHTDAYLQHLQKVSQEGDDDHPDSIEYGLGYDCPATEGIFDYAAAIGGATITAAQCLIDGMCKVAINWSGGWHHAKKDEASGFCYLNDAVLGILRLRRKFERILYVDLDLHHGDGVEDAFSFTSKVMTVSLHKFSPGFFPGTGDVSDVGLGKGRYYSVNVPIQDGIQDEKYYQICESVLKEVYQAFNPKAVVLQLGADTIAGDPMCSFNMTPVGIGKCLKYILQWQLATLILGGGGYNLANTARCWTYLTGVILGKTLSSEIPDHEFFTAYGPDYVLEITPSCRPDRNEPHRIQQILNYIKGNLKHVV
Conditions: cited from earlier work; for pIC50: training set composition.

Assay [2] deals with HDAC1 (Homo sapiens, UniProt Q13547). As to conditions: cited from earlier work.
HDAC1, sequence (Q13547 whole entry, canonical isoform): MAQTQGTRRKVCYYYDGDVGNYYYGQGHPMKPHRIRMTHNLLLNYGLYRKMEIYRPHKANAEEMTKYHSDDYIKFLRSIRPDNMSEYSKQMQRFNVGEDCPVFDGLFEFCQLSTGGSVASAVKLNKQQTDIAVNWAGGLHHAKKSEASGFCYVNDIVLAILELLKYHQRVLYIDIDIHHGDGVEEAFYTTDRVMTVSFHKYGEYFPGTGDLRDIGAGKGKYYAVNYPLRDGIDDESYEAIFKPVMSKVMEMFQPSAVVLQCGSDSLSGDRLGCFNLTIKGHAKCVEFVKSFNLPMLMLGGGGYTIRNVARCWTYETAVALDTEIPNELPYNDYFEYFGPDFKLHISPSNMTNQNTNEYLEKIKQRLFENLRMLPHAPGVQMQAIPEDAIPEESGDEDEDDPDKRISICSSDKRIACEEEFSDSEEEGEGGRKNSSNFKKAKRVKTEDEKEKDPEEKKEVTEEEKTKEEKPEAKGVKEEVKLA
For assay [3], the system named is HDAC isoforms. As to the kind of experiment: HDAC inhibition profiled over several HDAC isoforms (experimental). In kind it is biochemical, human. Conditions: range of pIC50 over the profiled HDAC isoforms.
In assay [4] the target is T2, HDAC10 (Homo sapiens, UniProt Q969S8).
T2 sequence (Q969S8 1-669): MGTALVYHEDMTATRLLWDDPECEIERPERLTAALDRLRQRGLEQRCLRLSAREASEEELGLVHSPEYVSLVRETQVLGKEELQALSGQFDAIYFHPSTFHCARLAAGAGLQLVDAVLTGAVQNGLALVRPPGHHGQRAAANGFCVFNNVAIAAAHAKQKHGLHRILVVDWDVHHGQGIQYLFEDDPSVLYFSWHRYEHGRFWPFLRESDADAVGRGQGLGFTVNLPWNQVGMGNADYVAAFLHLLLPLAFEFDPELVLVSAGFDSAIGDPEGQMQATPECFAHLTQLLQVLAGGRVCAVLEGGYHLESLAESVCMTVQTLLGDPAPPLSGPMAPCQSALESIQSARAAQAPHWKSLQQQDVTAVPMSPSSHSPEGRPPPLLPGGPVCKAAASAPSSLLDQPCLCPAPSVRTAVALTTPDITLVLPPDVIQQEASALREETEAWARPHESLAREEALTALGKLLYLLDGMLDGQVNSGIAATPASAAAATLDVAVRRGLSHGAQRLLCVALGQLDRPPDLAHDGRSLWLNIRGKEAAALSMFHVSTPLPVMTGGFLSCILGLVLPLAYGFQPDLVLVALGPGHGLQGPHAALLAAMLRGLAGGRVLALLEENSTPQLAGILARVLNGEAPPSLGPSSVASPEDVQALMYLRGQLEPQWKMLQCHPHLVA
As to conditions: cited from earlier work; for pIC50exp: experimental value of modeled complex; for pIC50: training set composition; for IC50: training set, read-out: HDACs inhibitory activities IC50.

Assay [5] addresses HDAC4 (Homo sapiens, UniProt P56524). Conditions: cited from earlier work.
Where [6] appears, read: co-crystallized ligand, read-out: IC50.
Setting [7] is: training set, read-out: HDACs inhibitory activities IC50.

HDAC4, sequence (P56524 whole entry): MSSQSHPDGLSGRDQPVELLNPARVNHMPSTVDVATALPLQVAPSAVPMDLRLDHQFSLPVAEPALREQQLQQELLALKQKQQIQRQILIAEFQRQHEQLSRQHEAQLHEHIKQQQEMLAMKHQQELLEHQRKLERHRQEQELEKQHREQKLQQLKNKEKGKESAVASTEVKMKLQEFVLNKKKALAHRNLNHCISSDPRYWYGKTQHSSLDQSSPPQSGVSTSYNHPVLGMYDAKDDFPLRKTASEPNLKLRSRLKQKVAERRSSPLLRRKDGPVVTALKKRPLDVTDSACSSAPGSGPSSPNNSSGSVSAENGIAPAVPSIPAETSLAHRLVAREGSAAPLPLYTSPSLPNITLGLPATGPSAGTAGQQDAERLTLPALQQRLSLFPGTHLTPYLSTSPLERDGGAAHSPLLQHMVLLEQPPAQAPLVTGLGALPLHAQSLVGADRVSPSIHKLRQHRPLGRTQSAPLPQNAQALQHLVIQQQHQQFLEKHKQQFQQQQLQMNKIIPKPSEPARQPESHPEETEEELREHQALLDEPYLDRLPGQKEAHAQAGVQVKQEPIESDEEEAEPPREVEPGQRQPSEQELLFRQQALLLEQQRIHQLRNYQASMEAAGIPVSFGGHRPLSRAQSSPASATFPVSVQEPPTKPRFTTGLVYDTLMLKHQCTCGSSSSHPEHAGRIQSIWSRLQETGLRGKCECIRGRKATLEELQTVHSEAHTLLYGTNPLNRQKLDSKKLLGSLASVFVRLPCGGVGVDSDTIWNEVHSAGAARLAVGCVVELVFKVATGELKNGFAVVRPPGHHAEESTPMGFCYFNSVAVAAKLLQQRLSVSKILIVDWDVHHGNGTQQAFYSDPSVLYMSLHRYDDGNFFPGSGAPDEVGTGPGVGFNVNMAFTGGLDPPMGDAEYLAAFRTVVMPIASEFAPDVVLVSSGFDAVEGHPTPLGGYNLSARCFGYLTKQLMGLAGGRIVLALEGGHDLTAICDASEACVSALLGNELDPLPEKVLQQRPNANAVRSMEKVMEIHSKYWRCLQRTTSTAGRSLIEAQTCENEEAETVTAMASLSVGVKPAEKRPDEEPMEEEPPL

On to “4-dimethylamino-n-(6- hydroxycarbamoyethyl) benzamide-n-hydroxy-7-(4- dimethylaminobenzoyl) aminoheptanamide [MS-344]”, for which the IC50 in assay [1] (setting [6]) was 0.249 µM. Also, in assay [1], the pIC50 is listed as 6.60.
For `N[C@H](Cc1ccc(Cl)cc1Cl)C(=O)N1CCN(C(=O)c2ccc(F)cc2F)CC1` [0DI], in assay [1] (CTS, read-out: IC50), the IC50 was 0.2 µM. The “Experimental pIC50” value in assay [1] (CTS) is on record as 6.70.
For `CNC(=O)/C(CCCCCCC(=O)Nc1cccc(-c2ccc(Cl)nc2)c1)=N\O` [JMC-23], the IC50 in assay [1] (MTS, read-out: reported HDACs inhibitory activities IC50) is 100 µM.
For `C[C@@H](NC(=O)c1ccc(C(=O)C(F)(F)F)s1)c1ccccc1` [MCL08-3d], the “Exp. pIC50” value in assay [2] (MTS inhibitors) is 6.50.
Consider `CN(c1ccc(C(=O)NO)cc1)S(=O)(=O)c1ccc(-c2ccccn2)s1` [NHB, N-hydroxy-4-{methyl[(5-pyridin-2-ylthiophen-2-yl)sulfonyl]amino}benzamide], for which the IC50 in assay [1] (setting [6]) was 0.175 µM. For the same compound, in assay [1], the pIC50 is 6.76.
As to `CCCC(CCC)C(=O)O` [VALP, valproic acid], the pIC50exp in assay [2] (experimental value of modeled complex) and in assay [4] was 3 throughout. The pIC50 in assay [2] (training set composition) and in assay [4] was 3.00 in each case. In addition, the IC50 in assay [2] (setting [7]) and in assay [4] was 1000 µM throughout. Also, the “Bioactivity range (ΔpIC50) DpIC50” value in assay [3] came out at 0.95.
Consider MS-275, for which the “Bioactivity range (ΔpIC50) DpIC50” value in assay [3] came to 2.63.
Take Oxamflatin: the pIC50 in assay [5] (training set composition) is recorded as 7.52; in assay [4] it was 7.30. For the same compound, the IC50 in assay [5] (setting [7]) is 0.03 µM; in assay [4] it was 0.05 µM. Besides, in assay [3], the “Bioactivity range (ΔpIC50) DpIC50” value was found to be 2.34. Besides, the pIC50exp in assay [4] is 7.301.
For the compound SCRIPTAID, the “Bioactivity range (ΔpIC50) DpIC50” value in assay [3] is on record as 2.76.
